Measurements: US20150210729A1, “MACROLIDE DERIVATIVES, PREPARATION THEREOF AND THERAPEUTIC USE THEREOF” (priority 2012, published 2015)
In brackets after ≈: the same amount, converted by molar mass. Where two headings read alike, the source gives them in different places.

Tests used:
[1] = system: Mycobacterium tuberculosis H37Rv; assay: Alamar blue (MABA) test, MIC on Mycobacterium tuberculosis H37Rv; type: cell-based; details: read-out: MIC (μM) MTb H37Rv
Streptococcus pneumoniae = assay: ATP bioluminescence test, inhibition of bacterial growth of Streptococcus pneumoniae (IC80); type: cell-based; details: read-out: IC80 (μM) S. pneumoniae
Experimental: Measurement of the Inhibitory Activity (IC80) of the Compounds According to the Invention Towards Streptococcus pneumoniae
The test used is a bioluminescence test, the aim of which is to measure the inhibition of bacterial growth of Streptococcus pneumoniae by quantification of the amount of adenosine triphosphate (ATP). Specifically, ATP is a major and mandatory energy intermediate of very many reactions of cell metabolism which characterizes live media.
ATP quantification is performed at the end of the test by using an enzyme, luciferase, which, in the presence of ATP and of a specific substrate, luciferin, produces quantifiable light.
Thus, in the presence of luciferin and luciferase at […] concentrations, the value obtained in relative light units (RLU) will make it possible, by means of a calibration, to estimate the amount of ATP and thus deduce the number of live bacteria at the end of the incubation period.
Thus, the more the RLU value obtained at the end of the test tends towards zero, the more the product inhibits the total growth of bacteria.
The results (Table 3) are expressed in IC80.

[2] = minimum inhibitory concentration, Alamar blue, strain H37Rv
[3] = 80% inhibition of bacterial growth, ATP/luciferase readout

| SMILES | MIC [1, 2] | further results |
| --- | --- | --- |
| CON=C1C[C@@H](C)O[C@@H](O[C@@H]2[C@@H](C)[C@H](O[C@H]3CC(C)N(CCF)C[C@H](C)O3)[C@@H](C)C(=O)O[C@H](C(C)CO[C@@H]3O[C@H](C)[C@@H](O)[C@@H](OC)[C@H]3OC)[C@H](C)[C@@H](OC(=O)CC(C)C)[C@@H](C)C(=O)[C@@](C)(OC(=O)NCc3ccccc3)C[C@@H]2C)[C@@H]1O (stereo partly drawn) [Compound 6, (2R,3S,4R,5R,7S,9S,10S,11R,12S,13R)-7-[(benzylcarbamoyl)oxy]-12-{[(2S,7R)-4-(2-fluoroethyl)-2,5-dimethyl-1,4-oxazepan-7-yl]oxy}-2-(1-{[(2R,3R,4R,5R,6R)-5-hydroxy-3,4-dimethoxy-6-methyltetrahydro-2H-pyran-2-yl]oxy}propan-2-yl)-10-{[(2S,3R,6R)-3-hydroxy-4-(methoxyimino)-6-methyltetrahydro-2H-pyran-2-yl]oxy}-3,5,7,9,11,13-hexamethyl-6,14-dioxooxacyclotetradecan-4-yl 3-methylbutanoate] | 0.91 µM (≈ 1.05 µg/mL) |  |
| CON=C1C[C@@H](C)O[C@@H](O[C@@H]2[C@@H](C)[C@H](O[C@H]3C[C@@H](C)N(C)C[C@H](C)O3)[C@@H](C)C(=O)O[C@H](C(C)CO[C@@H]3O[C@H](C)[C@@H](O)[C@@H](OC)[C@H]3OC)[C@H](C)[C@@H](OC(=O)CC(C)C)[C@@H](C)C(=O)[C@@](C)(OC(=O)N(C)C)C[C@@H]2C)[C@@H]1O (stereo partly drawn) [Compound 3, (2R,3S,4R,5R,7S,9S,10S,11R,12S,13R)-7-[(dimethylcarbamoyl)oxy]-2-(1-{[(2R,3R,4R,5R,6R)-5-hydroxy-3,4-dimethoxy-6-methyltetrahydro-2H-pyran-2-yl]oxy}propan-2-yl)-10-{[(2S,3R,6R)-3-hydroxy-4-(methoxyimino)-6-methyltetrahydro-2H-pyran-2-yl]oxy}-3,5,7,9,11,13-hexamethyl-6,14-dioxo-12-{[(2S,5R,7R)-2,4,5-trimethyl-1,4-oxazepan-7-yl]oxy}oxacyclotetradecan-4-yl 3-methylbutanoate] |  | MIC ([1]; H37RV): 1.27 µM (≈ 1.35 µg/mL) |
| CON=C1C[C@@H](C)O[C@@H](O[C@@H]2[C@@H](C)[C@H](O[C@H]3CC(C)N(C)C[C@H](C)O3)[C@@H](C)C(=O)O[C@H](C(C)CO[C@@H]3O[C@H](C)[C@@H](O)[C@@H](OC)[C@H]3OC)[C@H](C)[C@@H](OC(=O)CC(C)C)[C@@H](C)C(=O)[C@@](C)(OC(=O)NC(C)(C)CNS(=O)(=O)c3cn[nH]c3[N+](=O)[O-])C[C@@H]2C)[C@@H]1O (stereo partly drawn) [Compound 4] | 0.21 µM (≈ 0.268 µg/mL) |  |
| CON=C1C[C@@H](C)O[C@@H](O[C@@H]2[C@@H](C)[C@H](O[C@H]3C[C@H](C)N(CCc4ccncc4)C[C@H](C)O3)[C@@H](C)C(=O)OC([C@@H](C)CO[C@@H]3O[C@H](C)[C@@H](O)[C@@H](OC)[C@H]3OC)[C@H](C)[C@@H](OC(=O)CC(C)C)[C@@H](C)C(=O)[C@@](C)(OC(=O)NCc3ccccc3)C[C@@H]2C)[C@@H]1O (stereo partly drawn) [Compound 24] | 0.48 µM (≈ 0.582 µg/mL) | IC80 (Streptococcus pneumoniae; [3]): 0.88 µM |
| CON=C1C[C@@H](C)O[C@@H](O[C@@H]2[C@@H](C)[C@H](O[C@H]3C[C@@H](C)N(C)C[C@H](C)O3)[C@@H](C)C(=O)O[C@H](C(C)CO[C@@H]3O[C@H](C)[C@@H](O)[C@@H](OC)[C@H]3OC)[C@H](C)[C@@H](OC(=O)CC(C)C)[C@@H](C)C(=O)[C@@](C)(OC(=O)NC(C)(C)CNS(=O)(=O)c3ccccc3[N+](=O)[O-])C[C@@H]2C)[C@@H]1O (single isomer, unassigned) [Compound 5-a] | 0.34 µM (≈ 0.438 µg/mL) |  |
| CON=C1C[C@@H](C)O[C@@H](O[C@@H]2[C@@H](C)[C@H](O[C@H]3C[C@@H](C)N(CC(C)(C)O)C[C@H](C)O3)[C@@H](C)C(=O)O[C@H]([C@@H](C)CO[C@@H]3O[C@H](C)[C@@H](O)[C@@H](OC)[C@H]3OC)[C@H](C)[C@@H](OC(=O)CC(C)C)[C@@H](C)C(=O)[C@@](C)(OC(=O)NCc3ccccc3)C[C@@H]2C)[C@@H]1O [Compound 12] | 0.6 µM (≈ 0.708 µg/mL) |  |
| CON=C1C[C@@H](C)O[C@@H](O[C@@H]2[C@@H](C)[C@H](O[C@H]3C[C@H](C)N(Cc4ccccc4)C[C@H](C)O3)[C@@H](C)C(=O)OC([C@@H](C)CO[C@@H]3O[C@H](C)[C@@H](O)[C@@H](OC)[C@H]3OC)[C@H](C)[C@@H](OC(=O)CC(C)C)[C@@H](C)C(=O)[C@@](C)(OC(=O)NCCNC(=O)c3cnc(O)cn3)C[C@@H]2C)[C@@H]1O (stereo partly drawn) [Compound 33] | 0.35 µM (≈ 0.446 µg/mL) | IC80 (Streptococcus pneumoniae; [3]): 1.34 µM |
| CON=C1C[C@@H](C)O[C@@H](O[C@@H]2[C@@H](C)[C@H](O[C@H]3C[C@H](C)N(C)C[C@H](C)O3)[C@@H](C)C(=O)O[C@H](C(C)CO[C@@H]3O[C@H](C)[C@@H](O)[C@@H](OC)[C@H]3OC)[C@H](C)[C@@H](OC(=O)CC(C)C)[C@@H](C)C(=O)[C@@](C)(OC(=O)NC(C)(C)CNS(=O)(=O)c3ccccc3[N+](=O)[O-])C[C@@H]2C)[C@@H]1O (single isomer, unassigned) [Compound 5-b] | 0.53 µM (≈ 0.683 µg/mL) |  |
| CN[C@H](CC(C)C)C(=O)N[C@H]1C(=O)N[C@@H](CC(N)=O)C(=O)N[C@H]2C(=O)N[C@H]3C(=O)N[C@H](C(=O)N[C@H](C(=O)O)c4cc(O)cc(O)c4-c4cc3ccc4O)[C@H](O)c3ccc(c(Cl)c3)Oc3cc2cc(c3O[C@@H]2O[C@H](CO)[C@@H](O)[C@H](O)[C@H]2O[C@H]2C[C@](C)(N)[C@H](O)[C@H](C)O2)Oc2ccc(cc2Cl)[C@H]1O [vancomycin, reference compound] |  | IC80 (Streptococcus pneumoniae): 0.14 µM |
| CON=C1C[C@@H](C)O[C@@H](O[C@@H]2[C@@H](C)[C@H](O[C@H]3CC(C)N(CC(=O)Nc4ccc5ccc(C)nc5n4)C[C@H](C)O3)[C@@H](C)C(=O)O[C@H]([C@@H](C)CO[C@@H]3O[C@H](C)[C@@H](O)[C@@H](OC)[C@H]3OC)[C@H](C)[C@@H](OC(=O)CC(C)C)[C@@H](C)C(=O)[C@@](C)(OC(=O)NCc3ccccc3)C[C@@H]2C)[C@@H]1O (stereo partly drawn) [Compound 51] | 0.29 µM (≈ 0.379 µg/mL) |  |
| CON=C1C[C@@H](C)O[C@@H](O[C@@H]2[C@@H](C)[C@H](O[C@H]3C[C@H](C)N(C)C[C@H](C)O3)[C@@H](C)C(=O)O[C@H](C(C)CO[C@@H]3O[C@H](C)[C@@H](O)[C@@H](OC)[C@H]3OC)[C@H](C)[C@@H](OC(=O)CC(C)C)[C@@H](C)C(=O)[C@@](C)(OC(=O)NCCc3ccncc3)C[C@@H]2C)[C@@H]1O (stereo partly drawn) [Compound 2, (2R,3S,4R,5R,7S,9S,10S,11R,12S,13R)-2-(1-{[(2R,3R,4R,5R,6R)-5-hydroxy-3,4-dimethoxy-6-methyltetrahydro-2H-pyran-2-yl]oxy}propan-2-yl)-10-{[(2S,3R,6R)-3-hydroxy-4-(methoxyimino)-6-methyltetrahydro-2H-pyran-2-yl]oxy}-3,5,7,9,11,13-hexamethyl-6,14-dioxo-7-({[2-(pyridin-4-yl)ethyl]carbamoyl}oxy)-12-{[(2S,5S,7R)-2,4,5-trimethyl-1,4-oxazepan-7-yl]oxy}oxacyclotetradecan-4-yl 3-methylbutanoate] | 1.25 µM (≈ 1.42 µg/mL) | IC80 (Streptococcus pneumoniae; [3]): 0.28 µM |
| CON=C1C[C@@H](C)O[C@@H](O[C@@H]2[C@@H](C)[C@H](O[C@H]3C[C@@H](C)N(C)C[C@H](C)O3)[C@@H](C)C(=O)O[C@H](C(C)CO[C@@H]3O[C@H](C)[C@@H](O)[C@@H](OC)[C@H]3OC)[C@H](C)[C@@H](OC(=O)CC(C)C)[C@@H](C)C(=O)[C@@](C)(OC(=O)NCc3ccccc3)C[C@@H]2C)[C@@H]1O (single isomer, unassigned) [Compound 7-a] | 0.54 µM (≈ 0.606 µg/mL) |  |
| CON=C1C[C@@H](C)O[C@@H](O[C@@H]2[C@@H](C)[C@H](O[C@H]3C[C@H](C)N(CC(C)(C)O)C[C@H](C)O3)[C@@H](C)C(=O)O[C@H]([C@@H](C)CO[C@@H]3O[C@H](C)[C@@H](O)[C@@H](OC)[C@H]3OC)[C@H](C)[C@@H](OC(=O)CC(C)C)[C@@H](C)C(=O)[C@@](C)(OC(=O)NCc3ccccc3)C[C@@H]2C)[C@@H]1O [Compound 11] | 0.63 µM (≈ 0.744 µg/mL) |  |
| CON=C1C[C@@H](C)O[C@@H](O[C@@H]2[C@@H](C)[C@H](O[C@H]3C[C@@H](C)NC[C@H](C)O3)[C@@H](C)C(=O)O[C@H](C(C)CO[C@@H]3O[C@H](C)[C@@H](O)[C@@H](OC)[C@H]3OC)[C@H](C)[C@@H](OC(=O)CC(C)C)[C@@H](C)C(=O)[C@@](C)(OC(=O)NCc3ccccc3)C[C@@H]2C)[C@@H]1O (single isomer, unassigned) [Compound 8-a] | 0.56 µM (≈ 0.621 µg/mL) | IC80 (Streptococcus pneumoniae; [3]): 1.84 µM |
| CON=C1C[C@@H](C)O[C@@H](O[C@@H]2[C@@H](C)[C@H](O[C@H]3C[C@H](C)N(C)C[C@H](C)O3)[C@@H](C)C(=O)O[C@H](C(C)CO[C@@H]3O[C@H](C)[C@@H](O)[C@@H](OC)[C@H]3OC)[C@H](C)[C@@H](OC(=O)CC(C)C)[C@@H](C)C(=O)[C@@](C)(OC(=O)NCc3ccccc3)C[C@@H]2C)[C@@H]1O (single isomer, unassigned) [Compound 7-b] | 0.52 µM (≈ 0.584 µg/mL) |  |
| CON=C1C[C@@H](C)O[C@@H](O[C@@H]2[C@@H](C)[C@H](O[C@H]3C[C@@H](C)N(C)CC(C)O3)[C@@H](C)C(=O)O[C@H]([C@@H](C)CO[C@@H]3O[C@H](C)[C@@H](O)[C@@H](OC)[C@H]3OC)[C@H](C)[C@@H](OC(=O)CC(C)C)[C@@H](C)C(=O)[C@@](C)(OC(=O)NC(C)(C)CNS(=O)(=O)c3ccccc3)C[C@@H]2C)[C@@H]1O (stereo partly drawn) [Compound 70] | 0.46 µM (≈ 0.572 µg/mL) |  |
| CON=C1C[C@@H](C)O[C@@H](O[C@@H]2[C@@H](C)[C@H](O[C@H]3C[C@@H](C)N(C)C[C@H](C)O3)[C@@H](C)C(=O)O[C@H](C(C)CO[C@@H]3O[C@H](C)[C@@H](O)[C@@H](OC)[C@H]3OC)[C@H](C)[C@@H](OC(=O)CC(C)C)[C@@H](C)C(=O)[C@@](C)(O)C[C@@H]2C)[C@@H]1O (single isomer, unassigned) [Compound 1-a] | 2.05 µM (≈ 2.03 µg/mL) |  |
